Tests used:
[1] = target: T1, Cj1438C (C-terminal domain of Cj1438) (Campylobacter jejuni, UniProt Q0P8H6); assay: product analysis by ESI-MS, 1H and […] NMR; type: biochemical; settings: 5.0 mM ATP, 10 mM MgCl2, 50 mM NH4HCO3, pH 8.0, 25 °C, 4 h
T1 construct: C-terminal hexahistidine tag (pET31b(+)); E. coli; 40,084 Da

[2] = tested on: CO[C@@H]1O[C@H](CO)[C@@H](O)[C@H]1O; assay: purified protein; settings: 2.0 mM UDP-D-GlcA fixed, 0-25 mM substrate, 10 μM enzyme, 50 mM NH4HCO3, pH 8.0, 25 °C

T1 sequence (Q0P8H6 entry or part of it): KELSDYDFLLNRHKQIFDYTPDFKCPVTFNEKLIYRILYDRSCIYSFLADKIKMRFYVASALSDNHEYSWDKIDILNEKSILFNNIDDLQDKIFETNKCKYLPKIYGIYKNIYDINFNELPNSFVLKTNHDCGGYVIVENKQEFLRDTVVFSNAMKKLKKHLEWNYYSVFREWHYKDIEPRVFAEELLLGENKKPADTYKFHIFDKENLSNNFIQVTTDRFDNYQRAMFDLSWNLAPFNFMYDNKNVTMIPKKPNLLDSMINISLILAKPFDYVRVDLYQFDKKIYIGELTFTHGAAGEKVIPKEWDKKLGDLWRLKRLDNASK

## CO[C@@H]1O[C@H](CO)[C@@H](O)[C@H]1O[C@H]1O[C@H](C(=O)O)[C@@H](O)[C@H](O)[C@H]1O [7a, compound 7a]
[1]; 5.0 mM (S)-serinol phosphate
  product analysis by ESI-MS, 1H and 31P NMR: Incubation of Cj1438C with ATP, MgCl2, compound 7a, and (S)-serinol-P resulted in the formation

## Cj1432N (N-terminal domain of Cj1432) (Campylobacter jejuni subsp. jejuni NCTC 11168 = ATCC 700819)
[2]
  Km: 970 ± 90 µM
  kcat: 0.0085 ± 0.00017 s⁻¹

## N[C@@H](CO)COP(=O)(O)O [(S)-serinol phosphate]
[1]; 5.0 mM compound 7a
  product analysis by ESI-MS, 1H and 31P NMR: Incubation of Cj1438C with ATP, MgCl2, compound 7a, and (S)-serinol-P resulted in the formation
